Test results reported in PubChem BioAssay (NCI).
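Growth conditions: 96-well plates. Treatment: test compound, 48 hours, 5 concentrations. Analysis: linear interpolation between bracketing concentrations; unreached endpoints set to highest concentration. TGI: concentration producing complete growth inhibition.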

Tests used:
Assay in all cases: growth of human tumour cells (NCI), 48 h
[1] = system: 786-0 renal
[2] = system: A549 NSCLC
[3] = system: ACHN renal
[4] = system: CCRF-CEM leukemia
[5] = system: COLO 205 colon
[6] = system: HCT-116 colon
[7] = system: HOP-92 NSCLC
[8] = system: MALME-3M melanoma
[9] = system: PC-3 prostate
[10] = system: RPMI-8226 leukemia
[11] = system: SF-295 CNS
[12] = system: SK-OV-3 ovarian
[13] = system: SNB-75 CNS
[14] = system: SR leukemia
[15] = system: SW-620 colon
[16] = system: UO-31 renal
[17] = system: CAKI-1 renal

Measured: TGI

Cc1ccc2c(c1)CC1(Cc3c(C)cccc3C1=O)C2=O (configuration not stated)
89.7 µM: [13]
not listed: [17]
> 100 µM: all other assays above

C[N+]1(Cc2ccc(Cl)c(Cl)c2)CCCC1C1CCCN(Cc2ccc(Cl)c(Cl)c2)C1 (configuration not stated)
not listed: [4]
> 100 µM: all other assays above

O=[N+]([O-])c1cc2c(c([N+](=O)[O-])c1)NCc1ccccc1O2
48.2 µM: [13]
not listed: [12]
> 100 µM: all other assays above

COc1cc([C@H]2CC(=O)C[C@H](c3cc(OC)c(OC)c(OC)c3)C23C(=O)c2ccccc2C3=O)cc(OC)c1OC
63.7 µM: [6]
not listed: [4] | [13]
> 100 µM: all other assays above

C=CCN1C(=O)/C(=C/c2ccc(C)cc2)NC1=S
not listed: [8]
> 100 µM: all other assays above

CC(=O)N(C(C)=O)n1c(-c2ccccc2)n[nH]c1=O
not listed: [8] | [17]
> 100 µM: all other assays above

Cc1cc2nc(N3C(=O)/C(=C/c4ccccc4S)N=C3c3ccccc3)sc2cc1C
82.8 µM: [7]
98.5 µM: [5]
46.6 µM: [4]
58.1 µM: [9]
60.5 µM: [1]
61.3 µM: [6]
not listed: [8]
> 100 µM: all other assays above

COc1ccc(/C=C2\N=C(SC)N(CN3CCCCC3)C2=O)cc1
not listed: [4] | [17]
> 100 µM: all other assays above

COCn1cnc2c(=O)n(-c3ccc(OC)cc3)c(=S)n(-c3ccc(OC)cc3)c21
not listed: [7] | [8]
> 100 µM: all other assays above

COc1ccc(OC2OC(COC(c3ccccc3)(c3ccc(OC)cc3)c3ccc(OC)cc3)C(O)C(O)C2O)cc1 (configuration not stated)
4.79 µM: [16]
9.85 µM: [5]
15 µM: [11]
18.8 µM: [12]
9.59 µM: [9]
16.2 µM: [17]
10.7 µM: [6]
5.87 µM: [1]
21.2 µM: [8]
14.3 µM: [3] | [15]
5.39 µM: [4]
> 100 µM: [10] | [14]
14 µM: [13]
11.8 µM: [2]

Cc1ccc(C)n1-c1ccccc1C1C=CN(C(=O)OC(C)(C)C)C=C1
45.1 µM: [6]
41.7 µM: [15]
32.4 µM: [5]
47.8 µM: [8]
56.6 µM: [13]
not listed: [14]
> 100 µM: all other assays above
